The record followed here is paper PMC12395807, “Chemoreceptor family in plant-associated bacteria responds preferentially to the plant signal molecule glycerol 3-phosphate” (Genome Biology, 2025).

SMILES strings stand for the structures. Like-named read-outs stand apart in the source and are kept apart here.

Test [1] has as its target LBD of chemoreceptor R2 (WP_136157342.1) (Brenneria roseae, UniProt A0A2U1TV64, H128N/K136R). It counts as binding. The procedure: (§1) Plasmids for the overexpression of the different proteins were transformed into E. coli BL21(DE3). The resulting strains were grown under continuous stirring (200 rpm) at 30 °C in 2-L Erlenmeyer flasks containing 500 mL of LB medium supplemented with 50 μg/mL kanamycin. At an OD660 of 0.5, protein expression was induced by the addition of 0.1 mM isopropyl β-D-1-thiogalactopyranoside. Growth was continued at 16 °C overnight prior to cell harvesting by centrifugation at 10,000 × g for 20 min. Cell pellets were resuspended in buffer A (Additional file 2: Table S4) and subsequently broken by French press treatment at 62.5 lb/in^2. After centrifugation at 20,000 × g for 30 min, the supernatants were loaded onto 5-mL HisTrap HP columns (Amersham Biosciences) equilibrated with buffer A, and the proteins were eluted with a linear gradient of buffer B (Additional file 2: Table S4). All proteins contain a hexa-histidine tag at the N-terminal extension (Additional file 2: Table S3) and were purified at 4 °C. The purified proteins were dialyzed overnight into the corresponding analysis buffers (Additional file 2: Table S4) for immediate analysis.
(§2) All experiments were conducted on a VP microcalorimeter (Microcal, MA) at 15 °C for PacP-LBD and at 20 °C for the remaining proteins. Proteins were dialyzed into the analysis buffers specified in Additional file 2: Table S4, placed into the sample cell and titrated with aliquots of ligand solutions (1 to 10 mM) freshly prepared in dialysis buffer. The mean enthalpies measured from the injection of the ligands into the analysis buffer were subtracted from the raw titration data prior to data analysis with the MicroCal version of ORIGIN. The data were fitted with the “One binding site model” of ORIGIN.

For test [2], the target named is ligand binding domain of the chemoreceptor ECA_RS12390 (PacP-LBD, R1, WP_011094075.1) (Pectobacterium atrosepticum, UniProt Q6D464). Briefly: ITC binding to PacP-LBD. The note with it: 15 °C, Nb = no binding. As for the experimental part: as §1, §2
ligand binding domain of the chemoreceptor ECA_RS12390 (PacP-LBD, R1, WP_011094075.1), sequence (Q6D464 entry or part of it): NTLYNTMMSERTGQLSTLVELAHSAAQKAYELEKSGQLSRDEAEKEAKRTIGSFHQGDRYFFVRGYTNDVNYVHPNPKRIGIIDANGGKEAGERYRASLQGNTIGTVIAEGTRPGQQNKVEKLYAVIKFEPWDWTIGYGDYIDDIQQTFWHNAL
Test [3] addresses LBD of chemoreceptor R6 (WP_174062248.1). Briefly: ITC binding to R6-LBD. Set-up: species or system Agrobacterium larrymoorei. The note with it: 20 °C, Nb = no binding. As for the experimental part:
as §1, §2

Test [4] addresses LBD of chemoreceptor R5 (WP_028444678.1). Briefly: ITC binding to R5-LBD. Also noted: species or system Chitinimonas koreensis. To be noted: 20 °C, Nb = no binding. As for the experimental part: as §1, §2
Test [5] concerns the target LBD of chemoreceptor R9 (WP_189529961.1) (Paludibacterium paludis, UniProt A0A918NWY2). Briefly: ITC binding to R9-LBD. The note with it: 20 °C, Nb = no binding. As for the experimental part: as §1, §2
For test [6], the target named is LBD of chemoreceptor R10 (WP_028866120.1). Briefly: ITC binding to R10-LBD. To be noted: 20 °C, Nb = no binding. Set-up: species or system Psychromonas aquimarina. As for the experimental part: as §1, §2
Test [7] deals with ECA_RS12390-LBD (PacP-LBD). Briefly: Thermal shift ligand screening of PacP-LBD. It counts as binding, Pectobacterium atrosepticum. The note with it: thermal shift assay, Biolog arrays PM1, PM2A, PM3B, PM4A. The procedure:
Assays were carried out on a MyIQ2 Real-Time PCR instrument (Bio-Rad, Hercules, CA, USA). Ligand solutions were prepared by dissolving the array compounds in 50 µL of Milli-Q water, which, according to the manufacturer, corresponds to a concentration of 10–20 mM. Freshly purified proteins were dialyzed into analysis buffer (Additional file 2: Table S4). Compound arrays PM1, PM2A (carbon sources), PM3B (nitrogen sources), and PM4A (phosphorus and sulfur sources) from Biolog (https://www.biolog.com/) were used. The compositions of these arrays are provided in Additional file 2: Table S1. The experiments were conducted in 96-well plates, and each assay mixture contained 20 µL of the dialyzed protein (at 80–50 µM), 2 µL of 5 × SYPRO orange (Life Technologies, Eugene, Oregon, USA), and 2.5 µL of the resuspended array compound or the equivalent amount of buffer in the ligand-free control. The samples were heated from 23 to 85 °C at a scan rate of 1 °C/min. The protein unfolding curves were monitored by detecting changes in SYPRO® Orange fluorescence. The Tm values were determined from the first derivative values of the raw fluorescence data.

Test [8] has as its system Pectobacterium atrosepticum SCRI1043. Briefly: Growth experiment, sole carbon source. In kind it is cell-based. The note with it: PFM9 minimal medium, 5 mM ligand, 30 °C, 48 h. As for the experimental part: (§3) P. atrosepticum SCRI1043 was cultured overnight in phosphate-free M9-based medium (PFM9) supplemented with 20 mM glucose as the carbon source and 500 µM inorganic phosphate as the phosphate source. Cultures were washed and then diluted to an OD600 of 0.02 in PFM9 supplemented with different PacP ligands as the sole carbon or phosphorous source at a final concentration of 5 mM. Subsequently, 200 µL aliquots of these cultures were transferred into microwell plates, which were subsequently grown at 30 °C on a Bioscreen microbiological growth analyzer (Oy Growth Curves Ab Ltd., Helsinki, Finland) for 48 h.

Test [9] deals with LBD of chemoreceptor R4 (WP_158281851.1) (Rivihabitans pingtungensis, UniProt A0A318KJN4). Briefly: ITC binding to R4-LBD. Set-up: species or system Rivicola pingtungensis. To be noted: 20 °C, Nb = no binding. The procedure: as §1, §2
LBD of chemoreceptor R4 (WP_158281851.1), sequence (A0A318KJN4 entry or part of it): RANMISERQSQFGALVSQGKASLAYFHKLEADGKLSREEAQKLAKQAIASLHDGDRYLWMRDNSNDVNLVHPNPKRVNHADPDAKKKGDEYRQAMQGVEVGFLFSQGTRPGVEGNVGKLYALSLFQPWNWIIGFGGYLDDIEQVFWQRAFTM
Test [10] has as its target LBD of chemoreceptor R7 (WP_019915375.1). Briefly: ITC binding to R7-LBD. Also noted: species or system Methyloversatilis discipulorum. To be noted: 20 °C, Nb = no binding. The procedure: as §1, §2
The next test has as its system P. atrosepticum SCRI1043. Briefly: Quantitative capillary chemotaxis assay, wild type. It counts as cell-based, Pectobacterium atrosepticum. The note with it: wild type SCRI1043, 1 mM ligand, 30 min. The procedure:
(§4) Overnight cultures of P. atrosepticum SCRI1043 were grown at 30 °C in minimal medium. At an OD660 of 0.4–0.45, the cultures were washed twice with chemotaxis buffer (50 mM K2HPO4/KH2PO4, 20 μM EDTA, 0.05% (v/v) glycerol, pH 7.0) and diluted to an OD660 of 0.1 in the same buffer. Subsequently, 230 μL of the resulting bacterial suspension was placed into the wells of 96-well plates. One-microliter capillary tubes (P1424, Microcaps; Drummond Scientific) were heat-sealed at one end and filled with either chemotaxis buffer (negative control) or chemotaxis buffer containing PacP ligands at a concentration of 1 mM. The capillaries were immersed in the bacterial suspensions at their open ends. After 30 min at room temperature, the capillaries were removed from the bacterial suspensions, rinsed with sterile water, and the contents were expelled into 1 mL of 40 mM K2HPO4, 15 mM KH2PO4. Serial dilutions were plated onto minimal medium supplemented with 15 mM glucose as the carbon source. The number of colony-forming units was determined after 36 h of incubation at 30 °C. In all the cases, the data were corrected with the number of cells that swam into the buffer-containing capillaries.

The subject of test [11] is P. atrosepticum SCRI1043 pacP mutant (MpacP). Briefly: Quantitative capillary chemotaxis assay, pacP mutant. It counts as cell-based, Pectobacterium atrosepticum. The note with it: 1 mM ligand.
Text: A mutant defective in ECA_RS12390 was constructed by homologous recombination using a derivative plasmid of the suicide vector pKNG101. Briefly, a 0.5-kb fragment corresponding to the region encoding the LBD of ECA_RS12390 was amplified by the primers specified in Additional file 2: Table S2 and cloned into pGEM®-T. The resulting plasmid pGEM::ECA_RS12390 was digested with XmaI, and the 0.5-kb insert was cloned into the same site at pKNG101 to generate pKNG101::ECA_RS12390. This plasmid was subsequently transformed into P. atrosepticum SRCI1043 via biparental conjugation using E. coli β2163. All the plasmids were verified by PCR and sequencing. The pETb(+) derivatives encoding the LBD of the different receptors analyzed in this study (Table 1) were purchased from GeneScript. Plasmid pBBR-ECA_RS12390 was constructed by amplifying the pacP gene using the primers detailed in Additional file 2: Table S2 and cloning of the PCR product into the NdeI/BamHI sites of pBBR1MCS2_START. The sequences of the proteins analyzed in this study are provided in Additional file 2: Table S3. The ECA_RS12390 nucleotide sequence is available in the published genome of P. atrosepticum SCRI1043 [60].
as §4

Test [12] concerns the target LBD of chemoreceptor R3 (WP_006464688.1) (Herbaspirillum frisingense, UniProt A0ABU1PC34). Briefly: ITC binding to R3-LBD. To be noted: 20 °C, Nb = no binding. As for the experimental part:
as §1, §2

In test [13] the test system is Pectobacterium atrosepticum SCRI1043. Briefly: Growth experiment, sole phosphorus source. In kind it is cell-based. To be noted: PFM9 minimal medium, 5 mM ligand, 30 °C, 48 h. As for the experimental part: as §3
Setting [14] is: ITC, 20 °C, R2 LBD, Nb = no binding.

LBD of chemoreceptor R9 (WP_189529961.1), sequence (A0A918NWY2 entry or part of it): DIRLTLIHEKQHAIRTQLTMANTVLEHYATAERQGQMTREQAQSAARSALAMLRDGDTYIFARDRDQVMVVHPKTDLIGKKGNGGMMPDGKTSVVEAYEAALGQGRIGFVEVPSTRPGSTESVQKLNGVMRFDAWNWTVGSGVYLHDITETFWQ
LBD of chemoreceptor R2 (WP_136157342.1), sequence (A0A2U1TV64 28-178 H128N/K136R): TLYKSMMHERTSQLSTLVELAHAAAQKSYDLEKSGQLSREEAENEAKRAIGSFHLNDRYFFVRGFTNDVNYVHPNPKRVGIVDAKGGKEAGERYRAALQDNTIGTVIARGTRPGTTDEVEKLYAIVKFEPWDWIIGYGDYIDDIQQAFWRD
LBD of chemoreceptor R7 (WP_019915375.1), sequence (as listed by the source): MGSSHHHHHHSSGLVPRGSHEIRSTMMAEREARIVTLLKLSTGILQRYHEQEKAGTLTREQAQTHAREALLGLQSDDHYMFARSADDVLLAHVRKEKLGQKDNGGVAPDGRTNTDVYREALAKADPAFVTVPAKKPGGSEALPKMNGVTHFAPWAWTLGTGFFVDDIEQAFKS
LBD of chemoreceptor R3 (WP_006464688.1), sequence (A0ABU1PC34 entry or part of it): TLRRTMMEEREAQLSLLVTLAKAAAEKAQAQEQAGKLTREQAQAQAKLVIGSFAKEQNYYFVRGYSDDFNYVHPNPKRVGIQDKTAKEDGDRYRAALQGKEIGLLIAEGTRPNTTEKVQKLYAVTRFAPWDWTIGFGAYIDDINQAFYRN

As to `CCCCCCC(N)C(=O)O` (racemic) [D,L-aminocaprylic acid], the KD entry in [1] (setting [14]) is “did not reveal binding”.
For `O=C(O)[C@H](CO)OP(=O)(O)O` [2-phosphoglycerate], the KD result in test [2] is given as “No binding”.
The Kd is the free concentration of one partner at which half of the binding sites on the other are occupied at equilibrium, for simple one-to-one binding. For `O=C(O)CC(Br)C(=O)O` (centres unmarked) [Bromosuccinate], the KD result in test [3], in [4] and in test [6] was “Nb” throughout. The compound further showed a dissociation constant Kd in [5] of 200 ± 13 µM.
Turning to `O=C(O)CC(O)(CC(=O)O)C(=O)O` [Citrate], the KD entry in test [3], in test [5] and in [6] was “Nb” in each case. Binding in test [4] was characterised by a dissociation constant (Kd) of 10 ± 2 µM.
Consider `O=C(O)/C=C/C(=O)O` [Fumarate], for which the dissociation constant Kd in test [3] was 90 ± 4 µM; in test [4], 68 ± 6 µM. The KD result in test [5] and in test [6] was “Nb” in each case.
Take `O=C(O)CO` [Glycolate]: the KD entry in [3], in test [4] and in [5] was “Nb” in each case. The compound also returned a dissociation constant Kd in [6] of 322 ± 114 µM.
`N[C@@H](CS(=O)(=O)O)C(=O)O` [L-cysteic acid]: in test [1] (setting [14]), the KD result is “did not reveal binding”.
Consider `C[C@H](O)C(=O)O` [L-lactate], for which the KD entry in [3], in test [4] and in test [5] was “Nb” in each case. Also, in test [6], the Kd worked out at 463 ± 51 µM.
As to `O=C(O)CC(O)C(=O)O` (centres unmarked) [Malate], the Kd was determined as 63 ± 1 µM in test [3], 61 ± 2 µM in test [4] and 185 ± 5 µM in test [5]. In addition, the KD entry in [6] is “Nb”.
Take `CC(CC(=O)O)C(=O)O` (centres unmarked) [Methylsuccinate]: the KD entry in test [3], in [4] and in [6] was “Nb” each time. The compound also displayed a dissociation constant (Kd) in test [5] of 254 ± 53 µM.
Take `CC(=O)C(=O)O` [Pyruvate]: in test [2], the KD entry is recorded as “did not bind”.
As for `O=C(O)CCC(=O)O` [Succinate], the Kd in test [3] was 90 ± 4 µM; in [4] it was 127 ± 5 µM; in test [6], 362 ± 23 µM. Further, the KD result in [5] is reported as “Nb”.
With `O=C(O)CC(CC(=O)O)C(=O)O` [Tricarballylate], the KD entry in test [3] and in test [6] was “Nb” each time. The Kd in [4] was found to be 15 ± 1 µM; in test [5], 138 ± 33 µM.
Take `CC(=O)O` [acetic acid]: in test [1], the KD result is “did not reveal binding”.
Consider `CC(=O)CC(=O)O` [acetoacetic acid], for which, in test [1] (setting [14]), the KD result is “did not reveal binding”.
For `CCCCCC(=O)O` [caproic acid], in test [1] (setting [14]), the KD result is reported as “did not reveal binding”.
For the compound `NC(=O)OP(=O)(O)O` [carbamoylphosphate], in test [2], the KD entry was “did not result in measurable heat release”. Further, the “Tm change with respect to the ligand-free protein” value in test [7] is reported as “significant increases in Tm”.
`O=C(CO)COP(=O)(O)O` [dihydroxyacetone phosphate]: in test [8], the “growth as sole carbon source” value is reported as “devoid of apparent metabolic value”. In addition, the values for the Kd in test [2], in [9] and in [12] were 13 ± 1 µM, 230 ± 10 µM and 109 ± 14 µM, respectively. Besides, the KD result in [3] is “Nb”; in test [4], “Nb”; in test [5] it was “Nb”; in test [6], “Nb”; in [10], “Nb”; in test [12], “bound”. In addition, the “chemotaxis (capillary assay)” value is recorded as “Modest chemoattraction” in the test with P. atrosepticum SCRI1043 and “Only glycerol 2-phosphate served as an attractant for the mutant” in [11]. Also, the “growth as sole phosphorus source” value in [13] was “devoid of apparent metabolic value”.
For `O=CO` [formic acid], the KD entry in test [1] was “did not reveal binding”.
With `O=CC(CO)OP(=O)(O)O` (centres unmarked) [glyceraldehyde 2-phosphate], the KD result in test [10] is “bound”.
As to `CC(O)C(=O)O` (centres unmarked) [lactate], the KD entry in test [2] is given as “did not bind”.
Turning to `CCC(=O)O` [propionic acid], the KD entry in test [1] (setting [14]) is given as “did not reveal binding”.
